# Laboratory results published in publication PMC2935355 (PLoS ONE, 2010).
# Where two headings read alike, the source gives them in different places.
# Target: T1, ClC-7 (Rattus norvegicus, UniProt P51799)
# T1 construct: gene Clcn7; wt rat ClC-7 with C-terminal EGFP fusion; with Ostm1 (mouse)
# T1 sequence (P51799 1-803): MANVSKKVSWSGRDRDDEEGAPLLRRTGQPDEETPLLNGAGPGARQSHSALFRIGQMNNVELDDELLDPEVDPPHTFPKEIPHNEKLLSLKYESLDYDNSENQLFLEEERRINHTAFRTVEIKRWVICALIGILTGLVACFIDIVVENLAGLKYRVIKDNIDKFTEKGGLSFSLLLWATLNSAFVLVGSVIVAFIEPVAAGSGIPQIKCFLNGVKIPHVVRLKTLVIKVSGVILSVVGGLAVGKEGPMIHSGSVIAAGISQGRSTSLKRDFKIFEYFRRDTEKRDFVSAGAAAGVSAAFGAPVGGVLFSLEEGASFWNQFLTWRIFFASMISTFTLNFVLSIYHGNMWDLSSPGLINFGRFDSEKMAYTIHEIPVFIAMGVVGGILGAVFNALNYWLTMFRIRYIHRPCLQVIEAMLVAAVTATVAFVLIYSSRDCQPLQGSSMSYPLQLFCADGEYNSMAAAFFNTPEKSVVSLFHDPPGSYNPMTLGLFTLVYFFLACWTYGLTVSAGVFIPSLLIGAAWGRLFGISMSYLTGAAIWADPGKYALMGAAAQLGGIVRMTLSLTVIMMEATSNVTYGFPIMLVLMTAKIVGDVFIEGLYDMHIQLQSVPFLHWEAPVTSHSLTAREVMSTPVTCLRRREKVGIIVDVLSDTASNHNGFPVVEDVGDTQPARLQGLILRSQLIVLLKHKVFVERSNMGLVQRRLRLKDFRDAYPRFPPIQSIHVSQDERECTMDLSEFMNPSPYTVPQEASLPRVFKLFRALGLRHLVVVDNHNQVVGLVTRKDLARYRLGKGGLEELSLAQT
# T1 sequence (Q8BGT0 35-338 partner): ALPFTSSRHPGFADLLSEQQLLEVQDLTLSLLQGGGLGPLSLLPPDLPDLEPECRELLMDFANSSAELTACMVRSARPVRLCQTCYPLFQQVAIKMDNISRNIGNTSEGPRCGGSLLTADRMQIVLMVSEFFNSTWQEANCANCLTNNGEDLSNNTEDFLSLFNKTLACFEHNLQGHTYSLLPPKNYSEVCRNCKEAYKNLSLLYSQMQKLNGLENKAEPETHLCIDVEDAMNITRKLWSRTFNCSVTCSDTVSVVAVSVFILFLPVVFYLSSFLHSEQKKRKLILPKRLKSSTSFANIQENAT
# Experiment: SSM-based electrophysiology on lysosomal membrane fraction of CHO cells, […] NaCl jump
# Assay type: biochemical
Compound,IC50 (read-out: IC50),IC50
"O=S(=O)(O)c1cc(N=C=S)ccc1C=Cc1ccc(N=C=S)cc1S(=O)(=O)O [compound 1, 4,4′-diisothiocyanatostilbene-2,2′-disulfonic acid]",39 ± 3.8 µM,
NS5818 [compound 2],52 ± 8 µM,
"O=C(O)c1cc([N+](=O)[O-])ccc1NCCCc1ccccc1 [compound 3, 5-nitro-2-(3-phenylpropylamino)benzoic acid]",,156 ± 7.8 µM
